# According to PubChem BioAssay (NCI):
# Several values for one entry are separate records, joined by “and”; a condition that tells them apart may be missing. Identical values can stand only once.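 Cells were grown in 96-well plates and exposed to each compound for 48 hours at five concentrations; endpoints were interpolated linearly between bracketing concentrations, or set to the highest concentration if not reached. GI50 = concentration required for 50% inhibition of growth. TGI is the concentration that stops growth completely.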
# Assays:
# Test in all cases: growth of human tumour cells (NCI), 48 h
# SNB-75 CNS = test system: SNB-75 CNS
# COLO 205 colon = test system: COLO 205 colon
# DU-145 prostate = test system: DU-145 prostate
# NCI-H522 lung = test system: NCI-H522 lung
# SN12C renal = test system: SN12C renal
# LOX IMVI melanoma = test system: LOX IMVI melanoma
# T-47D breast = test system: T-47D breast
# UO-31 renal = test system: UO-31 renal
# MOLT-4 leukemia = test system: MOLT-4 leukemia
# SR leukemia = test system: SR leukemia
SMILES,TGI (SNB-75 CNS) [µM],TGI (COLO 205 colon) [µM],TGI (DU-145 prostate),TGI (NCI-H522 lung) [µM],TGI (SN12C renal) [µM],TGI (LOX IMVI melanoma) [µM],TGI (T-47D breast) [µM],TGI (UO-31 renal) [µM],TGI (MOLT-4 leukemia) [µM],TGI (SR leukemia) [µM],GI50 (DU-145 prostate) [µM],GI50 (MOLT-4 leukemia) [µM]
Cc1sc2ccccc2[n+]1CCC(=O)O,> 100,> 100,> 100 µM,> 100,> 100,> 100,> 100,,,,,
CC1(C)Oc2ccc(NC(=O)CCC(N)C(=O)O)cc2O1 (configuration not stated),> 100,> 100,> 100 µM,> 100,> 100,> 100,> 100,> 100,> 100,> 100,,
COc1ccc(/C=C2\N=C(c3ccccc3)N(C3Nc4cc5c(cc4S3)NC(N3C(=O)/C(=C/c4ccc(OC)cc4)N=C3c3ccccc3)S5)C2=O)cc1 (configuration not stated),94.2,,> 100 µM,45.2,,> 100,> 100,> 100,> 100,> 100,,
COc1ccc2c(c1)/c(=C/c1ccc(N(C)C)cc1)c1cc(-c3ccccc3)[n+](C)n12,0.327,,2.51 µM and 1.84 µM,,1.24,1.51,,3.28,4.92,2.84,0.108,0.142
Cc1c(-c2ccccc2)c(C#N)c2nnc(C(N)=O)c(N)n12,,> 100,> 100 µM,> 100,> 100,> 100,> 100,> 100,> 100,> 100,,
CC(C)CNC(=O)Cn1c(-c2ccccc2)cc2ccccc21,> 100,> 100,> 100 µM,> 100,> 100,> 100,> 100,> 100,> 100,> 100,,
Nc1cc(N2CCCC2)nc(=O)n1Cc1ccccc1,> 100,> 100,> 100 µM,> 100,> 100,> 100,,,> 100,> 100,,
CC(=O)c1cc2c(s1)C(=O)c1ccccc1C2=O,23.1,28.9,12 µM,3.5,16.3,15,20.6,9.1,8.67,> 100,,
CCCCOCn1c(=O)[nH]c(=O)c2cc(Br)ccc21,> 100,> 100,> 100 µM,,> 100,> 100,,52.6,> 100,> 100,,
Cc1cc(C)n(CN(Cn2nc(C)cc2C)C2CCCCC2)n1,76.8,32,62.2 µM,43.8,66.3,46.3,76.2,52.4,,> 100,,
CC(C)(C)OC[C@H](O)CC#N,> 100,> 100,> 100 µM,,> 100,> 100,> 100,> 100,> 100,> 100,,
